Measurements published in PubChem BioAssay AID2060499 (Molecular Pharmacology Branch, DTP, NCI, 2025).

System: 777334-354-R2-J4-PDC tumor spheroids with HUVEC/MSC, viability
Assay: Anticancer human tumor 777334-354-R2-J4-PDC patient-derived pancreatic adenocarcinoma cell line growth inhibition [GQUAD]
Conditions: for IC50: curve of first compound; for viability, T/C: stronger effect = lower value
Summary of the method: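 Multi-cell-type spheroids of tumor cells with HUVEC and mesenchymal stem cells, treated with drug combinations. Concentrations descend in half-log steps from near clinical Cmax, or from 10 microM where Cmax is unknown; viability read-out.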

[1] = second compound 0.0316 µM, first compound 0.0316 µM
[2] = second compound 0.0316 µM, first compound 0.1 µM
[3] = second compound 0.0316 µM, first compound 0.316 µM
[4] = second compound 0.0316 µM, first compound 1 µM
[5] = second compound 0.0316 µM, first compound 3.16 µM
[6] = second compound 0.0316 µM, first compound 10 µM
[7] = second compound 0.1 µM, first compound 0.0316 µM
[8] = second compound 0.1 µM, first compound 0.1 µM
[9] = second compound 0.1 µM, first compound 0.316 µM
[10] = second compound 0.1 µM, first compound 1 µM
[11] = second compound 0.1 µM, first compound 3.16 µM
[12] = second compound 0.1 µM, first compound 10 µM
[13] = second compound 0.316 µM, first compound 0.0316 µM
[14] = second compound 0.316 µM, first compound 0.1 µM
[15] = second compound 0.316 µM, first compound 0.316 µM
[16] = second compound 0.316 µM, first compound 1 µM
[17] = second compound 0.316 µM, first compound 3.16 µM
[18] = second compound 0.316 µM, first compound 10 µM
[19] = second compound 1 µM, first compound 0.0316 µM
[20] = second compound 1 µM, first compound 0.1 µM
[21] = second compound 1 µM, first compound 0.316 µM
[22] = second compound 1 µM, first compound 1 µM
[23] = second compound 1 µM, first compound 3.16 µM
[24] = second compound 1 µM, first compound 10 µM
[25] = second compound 3.16 µM, first compound 0.0316 µM
[26] = second compound 3.16 µM, first compound 0.1 µM
[27] = second compound 3.16 µM, first compound 0.316 µM
[28] = second compound 3.16 µM, first compound 1 µM
[29] = second compound 3.16 µM, first compound 3.16 µM
[30] = second compound 3.16 µM, first compound 10 µM
[31] = second compound 10 µM, first compound 0.0316 µM
[32] = second compound 10 µM, first compound 0.1 µM
[33] = second compound 10 µM, first compound 0.316 µM
[34] = second compound 10 µM, first compound 1 µM
[35] = second compound 10 µM, first compound 3.16 µM
[36] = second compound 10 µM, first compound 10 µM
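Also: spheroids exposed to compounds for 7 days before readout.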

`C=CCn1c(=O)c2cnc(Nc3ccc(N4CCN(C)CC4)cc3)nc2n1-c1cccc(C(C)(C)O)n1` + Cc1[nH]c2ccc(F)cc2c1-c1nc2c3cccnc3c3ncccc3c2[nH]1 gave an IC50 (second compound 0.0316 µM) of 725 nM, an IC50 (second compound 0.1 µM) of 869 nM and an IC50 (second compound 0.316 µM) of 738 nM. For the same molecule, the IC50 (second compound 1 µM) was 710 nM, the IC50 (second compound 3.16 µM) was 31.6 nM and the IC50 (second compound 10 µM) was under 31.6 nM. It also gave a viability, T/C [1] of 100%, a viability, T/C [2] of 106% and a viability, T/C [3] of 79.5%. It also gave a viability, T/C [4] of 39.5%, a viability, T/C [5] of 30.6% and a viability, T/C [6] of 34.6%. It also gave a viability, T/C [7] of 87.5%, a viability, T/C [8] of 92.9% and a viability, T/C [9] of 78%. For the same molecule, the viability, T/C [10] was 46.6%, the viability, T/C [11] was 33.1% and the viability, T/C [12] was 34.5%. The viability, T/C [13] was 94.3%, the viability, T/C [14] was 99.8% and the viability, T/C [15] was 82.8%. The viability, T/C [16] was 38.3%, the viability, T/C [17] was 36.7% and the viability, T/C [18] was 30.9%. It also gave a viability, T/C [19] of 75.3%, a viability, T/C [20] of 77.5% and a viability, T/C [21] of 73.1%. It also gave a viability, T/C [22] of 40.1%, a viability, T/C [23] of 34% and a viability, T/C [24] of 28.1%. It also gave a viability, T/C [25] of 50.4%, a viability, T/C [26] of 36.9% and a viability, T/C [27] of 50.8%. For the same molecule, the viability, T/C [28] was 12.8%, the viability, T/C [29] was 14% and the viability, T/C [30] was 14.2%. For the same molecule, the viability, T/C [31] was 31.7%, the viability, T/C [32] was 27.5% and the viability, T/C [33] was 24.7%. For the same molecule, the viability, T/C [34] was 14.8%, the viability, T/C [35] was 14.1% and the viability, T/C [36] was 11.2%.

For `CC(C)(O)C1CCC(Nc2ccc3ncc(-c4cccc(C(F)(F)F)c4)n3n2)CC1` (stereo unspecified) + Cc1[nH]c2ccc(F)cc2c1-c1nc2c3cccnc3c3ncccc3c2[nH]1, the IC50 (second compound 0.0316 µM) was 1500 nM, the IC50 (second compound 0.1 µM) was 1330 nM and the IC50 (second compound 0.316 µM) was 1060 nM. The IC50 (second compound 1 µM) was 874 nM, the IC50 (second compound 3.16 µM) was under 31.6 nM and the IC50 (second compound 10 µM) was under 31.6 nM. The viability, T/C [1] was 82.8%, the viability, T/C [2] was 97.5% and the viability, T/C [3] was 87.3%. For the same molecule, the viability, T/C [4] was 59.9%, the viability, T/C [5] was 30.1% and the viability, T/C [6] was 33.9%. The viability, T/C [7] was 96.7%, the viability, T/C [8] was 94.5% and the viability, T/C [9] was 84.8%. The viability, T/C [10] was 55%, the viability, T/C [11] was 35.1% and the viability, T/C [12] was 32.4%. It also gave a viability, T/C [13] of 96.7%, a viability, T/C [14] of 87.2% and a viability, T/C [15] of 87%. It also gave a viability, T/C [16] of 51.2%, a viability, T/C [17] of 30.3% and a viability, T/C [18] of 32.7%. It also gave a viability, T/C [19] of 86.7%, a viability, T/C [20] of 68.2% and a viability, T/C [21] of 82.4%. For the same molecule, the viability, T/C [22] was 46.1%, the viability, T/C [23] was 29.7% and the viability, T/C [24] was 24.6%. For the same molecule, the viability, T/C [25] was 35.1%, the viability, T/C [26] was 28.4% and the viability, T/C [27] was 23.2%. It also gave a viability, T/C [28] of 12.9%, a viability, T/C [29] of 8.53% and a viability, T/C [30] of 10.5%. For the same molecule, the viability, T/C [31] was 26.7%, the viability, T/C [32] was 27.6% and the viability, T/C [33] was 18%. It also gave a viability, T/C [34] of 12.3%, a viability, T/C [35] of 7.51% and a viability, T/C [36] of 7.22%.

`COc1ncnc(C2CC2)c1-c1ncc2cnn(Cc3ccc(-c4nc(C(F)(F)F)cn4C(C)C)cc3)c2n1` + Cc1[nH]c2ccc(F)cc2c1-c1nc2c3cccnc3c3ncccc3c2[nH]1 gave an IC50 (second compound 0.0316 µM) of over 10000 nM, an IC50 (second compound 0.1 µM) of over 10000 nM and an IC50 (second compound 0.316 µM) of over 10000 nM. It also gave an IC50 (second compound 1 µM) of over 10000 nM, an IC50 (second compound 3.16 µM) of 127 nM and an IC50 (second compound 10 µM) of under 31.6 nM. For the same molecule, the viability, T/C [1] was 104%, the viability, T/C [2] was 96.9% and the viability, T/C [3] was 103%. It also gave a viability, T/C [4] of 91.4%, a viability, T/C [5] of 83% and a viability, T/C [6] of 112%. It also gave a viability, T/C [7] of 102%, a viability, T/C [8] of 89.4% and a viability, T/C [9] of 100%. For the same molecule, the viability, T/C [10] was 92.1%, the viability, T/C [11] was 89% and the viability, T/C [12] was 105%. For the same molecule, the viability, T/C [13] was 93%, the viability, T/C [14] was 85% and the viability, T/C [15] was 96.7%. For the same molecule, the viability, T/C [16] was 85.4%, the viability, T/C [17] was 93.1% and the viability, T/C [18] was 110%. It also gave a viability, T/C [19] of 81.9%, a viability, T/C [20] of 88.3% and a viability, T/C [21] of 90.5%. For the same molecule, the viability, T/C [22] was 79.6%, the viability, T/C [23] was 91% and the viability, T/C [24] was 79.3%. It also gave a viability, T/C [25] of 56.1%, a viability, T/C [26] of 58.8% and a viability, T/C [27] of 37.6%. It also gave a viability, T/C [28] of 43.5%, a viability, T/C [29] of 49.3% and a viability, T/C [30] of 49.7%. The viability, T/C [31] was 39.7%, the viability, T/C [32] was 35.3% and the viability, T/C [33] was 38.2%. For the same molecule, the viability, T/C [34] was 18.8%, the viability, T/C [35] was 33.3% and the viability, T/C [36] was 35.7%.
